Laboratory results: EP4257135A1, “BENZIMIDAZOLE DERIVATIVES FOR PULMONARY ARTERIAL HYPERTENSION” (Justus-Liebig-Universität Gießen, priority 2022, dated 2023)

Key:
Assay type in all cases: cell-based, human
PAH-FBs [1] = experiment: Cell proliferation by BrdU incorporation in PAH fibroblasts; conditions: PAH-FBs isolated ex vivo; various concentrations; vs DMSO; 24 h
Excerpt: (§1) Diese Untersuchungen führten zu der Erkenntnis, dass die epigenetische Regulation der entwicklungsbedingten TF-Expression in der Lunge durch Modulation der EP300/CREBBP-Funktion rückgängig gemacht werden kann. Die Wirkung des niedermolekularen Inhibitors (Substanz, Wirkstoff) SGC-CBP30 auf die Proliferation von Gefäßzellen, die Apoptose sowie die Gen- und Proteinexpression wurde mit Hilfe geeigneter Assays nach der Transfektion untersucht. Nachdem Zellen zur Subkonfluenz gewachsen sind, wurde ihnen mit steigenden Konzentrationen der selektive EP300-Inhibitor SGC-CBP30 (Sigma, Katalognummer: SML1133) hinzugefügt. Die aus PAH-Patienten isolierten FBs wurden also mit dem isoformselektiven HAT-Inhibitor SGC-CBP30 behandelt. Gleichzeitig wurde den Zellen das Lösungsmittel DMSO (Sigma) mit entsprechenden Konzentrationen hinzugefügt. […]
(§2) • A: PAH-FBs wurden mit siRNAs (siP300) behandelt, die auf EP300 abzielen (n=3), um die genspezifische funktionelle Rolle von EP300 bei der Hyperproliferation ex vivo 48 Stunden nach der Transfektion zu untersuchen. […] Skalenbalken: 50 µm. • E: Die Wirkung der P300-Inhibition (200 µM) auf den Gefäßumbau wurde durch Quantifizierung der prozentualen medialen Wanddicke in den mit dem EP300/CREBBP-Inhibitor SGC-CBP30 inkubierten PCLS im Vergleich zu den mit DMSO inkubierten Kontrollen bewertet. […]

PAH-SMCs = experiment: Hyperproliferative phenotype of PAH smooth muscle cells; conditions: vs DMSO
Excerpt: PAH-FBs wurden mit verschiedenen Konzentrationen der Substanz SGC-CBP30 oder dem Lösungsmittel DMSO inkubiert, um die Zellproliferation und die Induktion von Apoptose 24 Stunden danach zu untersuchen. Die Wirkung der selektiven EP300/CREBBP-Inhibition auf die Zellproliferation wurde durch den Einbau von BrdU (Bromodeoxyuridin, 5-Bromo-2'-Deoxyuridin, BUdR, BrdUrd, Broxuridine) bewertet. Die Wirkung der Substanz SGC-CBP30 oder des Lösungsmittels DMSO auf die Induktion von Apoptose wurde durch Cell Death Detection ELISAPLUS bewertet. Dabei zeigten sich deutliche Unterschiede zwischen der Substanz SGC-CBP30 und dem Lösungsmittel DMSO.
Das therapeutische Potenzial der EP300/CREBBP-Hemmung durch die Substanz SGC-CBP30 wurde untersucht. Dazu wurde die Wirksamkeit auf PAH-FBs und PAH-SMCs geprüft, die aus den Lungenarterien von menschlichen PAH-Patienten und aus den Lungenarterien von Ratten mit MCT-PAH (Rattenmodell mit Monocrotalin) isoliert wurden. […] Die Wirkung der EP300-Hemmung auf das vaskuläre Remodelling wurde durch Quantifizierung der prozentualen medialen Wanddicke in den mit der Substanz SGC-CBP30 inkubierten PCLS im Vergleich zu den mit DMSO inkubierten Kontrollen bewertet. Dabei zeigten sich deutliche Unterschiede zwischen der Substanz SGC-CBP30 und DMSO.

PAH-FBs [2] = experiment: Apoptosis by Cell Death Detection ELISAPLUS in PAH fibroblasts; conditions: PAH-FBs isolated ex vivo; various concentrations; vs DMSO; 24 h
Excerpt: as §1, §2

Q: `COc1ccc(CCc2nc3cc(-c4c(C)noc4C)ccc3n2C[C@H](C)N2CCOCC2)cc1Cl` [SGC-CBP30, 2-[2-(3-Chloro-4-methoxyphenyl)ethyl]-5-(3,5-dimethyl-1,2-oxazol-4-yl)-1-[(S)-2-(morpholin-4-yl)propyl]-1H-benzimidazole] was tested. Which “hyperproliferativer Phänotyp (Zellproliferation, BrdU)” value (PAH-FBs [1]) did it give?
A: The value was “schwächte den hyperproliferativen Phänotyp und die Apoptoserate von PAH-FBs und PAH-SMCs deutlich ab”.

Q: And the “hyperproliferativer Phänotyp” value (PAH-SMCs)?
A: The value was “schwächte den hyperproliferativen Phänotyp und die Apoptoserate von PAH-FBs und PAH-SMCs deutlich ab”.

Q: And the Apoptoserate (PAH-FBs [2])?
A: The Apoptoserate was “schwächte den hyperproliferativen Phänotyp und die Apoptoserate von PAH-FBs und PAH-SMCs deutlich ab”.
